Assay results as given in ChEMBL document CHEMBL1681704, “Design and synthesis of novel allosteric MEK inhibitor CH4987655 as an orally available anticancer agent” (Bioorg Med Chem Lett, 2011).
≈ marks a conversion by molar mass, not a printed value. One block for each compound: values may come before it. Calls of active or inactive are those of the source. The calls are words filed in the database; no cut-off is given here.

Experiments:
[1] = Half life in human liver microsomes at 1 uM; format: ADME, Microsome
[2] = Half life in mouse liver microsomes at 1 uM; format: ADME, Microsome
[3] = Solubility in 50 mM phosphate buffer at pH 6.5 after 2 hrs; format: physicochemical
[4] = Toxicity in human HT-29 cells xenografted BALB/c nu/nu mouse assessed as maximum tolerable dose; format: organism-based; conditions: in vivo
[5] = system: HT-29; assay: Cytotoxicity against human HT-29 cells after 4 days; format: functional, cell-based; conditions: HT-29, 96 h
[6] = Inhibition of MEK after 30 mins
[7] = system: QG-56; assay: Cytotoxicity against human QG56 cells after 4 days; format: functional, cell-based; conditions: QG-56, 96 h
[8] = system: HT-29; assay: Antitumor activity against human HT-29 cells xenografted in BALB/c nu/nu mouse assessed as tumor growth inhibition at maximum tolerable dose administered as po qd for 14 days; format: functional
[9] = Tmax in cynomolgus monkey at 6 mg/kg, po; format: ADME, organism-based, Macaca fascicularis; set-up: dose 6 mg/kg, route oral; conditions: in vivo
[10] = system: HT-29; assay: Inhibition of MEK in human HT-29 cells xenografted in BALB/c nu/nu mouse tumor assessed as phosphorylated ERK level at maximum tolerable dose administered as po; format: functional, cell-based; conditions: Neoplasm
[11] = Genotoxicity in Salmonella Typhimurium by Ames test; format: toxicity; conditions: salmonella enterica subsp. enterica serovar typhimurium
[12] = molecular target: Voltage-gated inwardly rectifying potassium channel KCNH2 (Homo sapiens, UniProt Q12809); assay: Inhibition of human ERG
[13] = Antitumor activity against human H441 cells expressing Kras G12V mutant xenografted in CAnN.Cg-Foxn1 nu/CrlCrlj mouse assessed as tumor regression at maximum tolerable dose administered as po qd for 14 days; format: functional, NCI-H441
[14] = Half life in cynomolgus monkey at 1.5 mg/kg, po; format: ADME, organism-based, Macaca fascicularis; set-up: dose 1.5 mg/kg, route oral; conditions: in vivo
[15] = MRT (infinity) in cynomolgus monkey at 3 mg/kg, po; format: ADME, organism-based, Macaca fascicularis; set-up: dose 3 mg/kg, route oral; conditions: in vivo
[16] = MRT (infinity) in cynomolgus monkey at 6 mg/kg, po; format: ADME, organism-based, Macaca fascicularis; set-up: dose 6 mg/kg, route oral; conditions: in vivo
[17] = MRT (infinity) in cynomolgus monkey at 1.5 mg/kg, po; format: ADME, organism-based, Macaca fascicularis; set-up: dose 1.5 mg/kg, route oral; conditions: in vivo
[18] = system: PANC-1; assay: Antitumor activity against human PANC1 cells expressing Kras […] mutant xenografted in CAnN.Cg-Foxn1 nu/CrlCrlj mouse assessed as tumor regression at maximum tolerable dose administered as po qd for 14 days; format: functional
[19] = system: HT-29; assay: Antitumor activity against human HT-29 cells expressing b-Raf V600E mutant xenografted in CAnN.Cg-Foxn1 nu/CrlCrlj mouse assessed as tumor regression at maximum tolerable dose administered as po qd for 14 days; format: functional
[20] = Half life in cynomolgus monkey at 6 mg/kg, po; format: ADME, organism-based, Macaca fascicularis; set-up: dose 6 mg/kg, route oral; conditions: in vivo
[21] = Tmax in cynomolgus monkey at 3 mg/kg, po; format: ADME, organism-based, Macaca fascicularis; set-up: dose 3 mg/kg, route oral; conditions: in vivo
[22] = Cmax in cynomolgus monkey at 6 mg/kg, po; format: ADME, organism-based, Macaca fascicularis; set-up: dose 6 mg/kg, route oral; conditions: in vivo
[23] = AUC (infinity) in cynomolgus monkey at 1.5 mg/kg, po; format: ADME, organism-based, Macaca fascicularis; set-up: time infinity, dose 1.5 mg/kg, route oral; conditions: plasma
[24] = AUC (infinity) in cynomolgus monkey at 6 mg/kg, po; format: ADME, organism-based, Macaca fascicularis; set-up: time infinity, dose 6 mg/kg, route oral; conditions: plasma
[25] = molecular target: Cytochrome P450 3A4 (Homo sapiens, UniProt P08684); assay: Inhibition of CYP3A4; format: ADME
[26] = system: Brain; assay: Inhibition of MEK in human HT-29 cells xenografted in BALB/c nu/nu mouse brain assessed as phosphorylated ERK level at maximum tolerable dose administered as po; format: functional, cell-based
[27] = Tmax in cynomolgus monkey at 1.5 mg/kg, po; format: ADME, organism-based, Macaca fascicularis; set-up: dose 1.5 mg/kg, route oral; conditions: in vivo
[28] = Half life in cynomolgus monkey at 3 mg/kg, po; format: ADME, organism-based, Macaca fascicularis; set-up: dose 3 mg/kg, route oral; conditions: in vivo
[29] = AUC (infinity) in cynomolgus monkey at 3 mg/kg, po; format: ADME, organism-based, Macaca fascicularis; set-up: time infinity, dose 3 mg/kg, route oral; conditions: plasma
[30] = Cmax in cynomolgus monkey at 3 mg/kg, po; format: ADME, organism-based, Macaca fascicularis; set-up: dose 3 mg/kg, route oral; conditions: in vivo
[31] = Cmax in cynomolgus monkey at 1.5 mg/kg, po; format: ADME, organism-based, Macaca fascicularis; set-up: dose 1.5 mg/kg, route oral; conditions: in vivo
[32] = system: Cynomolgus monkey; assay: In vivo metabolic stability in cynomolgus monkey assessed as plasma concentration at 2 mg/kg, po; format: ADME, organism-based, Macaca fascicularis; set-up: dose 2 mg/kg, route oral

Sequence of Cytochrome P450 3A4 (P08684 whole entry): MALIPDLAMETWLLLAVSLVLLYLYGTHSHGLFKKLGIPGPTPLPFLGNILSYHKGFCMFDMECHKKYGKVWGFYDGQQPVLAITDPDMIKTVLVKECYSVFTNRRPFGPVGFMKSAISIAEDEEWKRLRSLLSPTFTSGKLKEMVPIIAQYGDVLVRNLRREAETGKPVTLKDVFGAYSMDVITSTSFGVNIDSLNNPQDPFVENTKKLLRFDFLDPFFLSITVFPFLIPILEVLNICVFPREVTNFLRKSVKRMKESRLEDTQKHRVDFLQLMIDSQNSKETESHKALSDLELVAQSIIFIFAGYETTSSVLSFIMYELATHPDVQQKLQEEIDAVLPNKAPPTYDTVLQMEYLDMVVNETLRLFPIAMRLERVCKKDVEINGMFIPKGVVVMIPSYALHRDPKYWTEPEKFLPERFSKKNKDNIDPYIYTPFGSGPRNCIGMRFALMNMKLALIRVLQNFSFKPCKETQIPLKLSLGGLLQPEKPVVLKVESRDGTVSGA
Sequence of Voltage-gated inwardly rectifying potassium channel KCNH2 (Q12809 whole entry): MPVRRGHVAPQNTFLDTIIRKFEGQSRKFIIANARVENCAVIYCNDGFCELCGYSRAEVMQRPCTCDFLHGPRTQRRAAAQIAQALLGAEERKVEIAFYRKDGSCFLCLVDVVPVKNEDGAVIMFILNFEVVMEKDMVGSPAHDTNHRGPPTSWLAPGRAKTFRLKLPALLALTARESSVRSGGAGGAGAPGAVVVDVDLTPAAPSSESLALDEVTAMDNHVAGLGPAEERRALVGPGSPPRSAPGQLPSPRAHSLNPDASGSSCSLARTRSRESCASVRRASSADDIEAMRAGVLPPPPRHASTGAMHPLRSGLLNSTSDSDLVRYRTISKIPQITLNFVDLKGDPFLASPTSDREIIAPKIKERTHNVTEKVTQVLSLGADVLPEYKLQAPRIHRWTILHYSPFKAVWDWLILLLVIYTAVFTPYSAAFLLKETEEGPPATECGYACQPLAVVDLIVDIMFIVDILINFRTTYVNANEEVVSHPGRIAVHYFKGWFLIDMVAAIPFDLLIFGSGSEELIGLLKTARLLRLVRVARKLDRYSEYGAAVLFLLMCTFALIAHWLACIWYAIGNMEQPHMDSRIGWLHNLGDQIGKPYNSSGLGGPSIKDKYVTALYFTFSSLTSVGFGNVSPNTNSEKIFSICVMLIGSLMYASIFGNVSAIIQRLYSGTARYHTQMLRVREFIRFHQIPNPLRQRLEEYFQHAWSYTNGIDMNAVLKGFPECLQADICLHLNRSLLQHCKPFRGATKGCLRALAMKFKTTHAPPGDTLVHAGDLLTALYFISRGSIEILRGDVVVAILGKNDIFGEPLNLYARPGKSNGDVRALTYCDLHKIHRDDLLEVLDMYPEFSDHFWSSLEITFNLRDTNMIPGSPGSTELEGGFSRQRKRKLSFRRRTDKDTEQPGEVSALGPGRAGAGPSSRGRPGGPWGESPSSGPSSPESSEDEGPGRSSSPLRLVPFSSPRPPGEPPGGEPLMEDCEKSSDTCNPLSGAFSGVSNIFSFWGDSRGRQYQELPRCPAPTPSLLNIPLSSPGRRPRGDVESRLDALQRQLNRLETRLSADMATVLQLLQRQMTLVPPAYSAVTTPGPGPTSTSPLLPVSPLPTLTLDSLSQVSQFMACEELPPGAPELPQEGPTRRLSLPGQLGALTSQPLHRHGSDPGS

SMILES: CON(Cc1cc(C(=O)NOCCO)c(Nc2ccc(I)cc2F)c(F)c1F)C(C)=O
- half-life at 1 µM [1]: 1.07 h
- half-life at 1 µM [2]: 0.6 h
- solubility at 2 h [3]: 116 µM (≈ 64.2 µg/mL)
- MTD [4]: 25 mg/kg

SMILES: CC(C)(O)CO/N=C/c1cc(C(=O)NOCCO)c(Nc2ccc(I)cc2F)c(F)c1F
- half-life at 1 µM [1]: > 6 h
- half-life at 1 µM [2]: > 6 h
- IC50 [5]: 40 nM
- IC50 [6]: 37 nM
- IC50 [7]: 128 nM
- MTD [4]: 100 mg/kg
- TGI [8]: 85%

- half-life at 1 µM [1]: 1.93 h
- Tmax [9]: 1.5 h
- half-life at 1 µM [2]: > 6 h
- half-life [14]: 6.6 h
- MRT inf [15]: 8.8 h
- MRT inf [16]: 7.3 h
- MRT inf [17]: 8.4 h
- half-life [20]: 5 h
- Tmax [21]: 2.5 h
- Cmax [22]: 2100 ng/mL
- AUC(0-inf) [23]: 2200 ng·h/mL
- AUC(0-inf) [24]: 10400 ng·h/mL
- IC50 [25]: > 100000 nM
- Tmax [27]: 1.3 h
- half-life [28]: 6 h
- AUC(0-inf) [29]: 7400 ng·h/mL
- Cmax [30]: 1000 ng/mL
- Cmax [31]: 400 ng/mL
SMILES: O=C(NOCCO)c1cc(CN2OCCCC2=O)c(F)c(F)c1Nc1ccc(I)cc1F [RO-4987655]
- inhibition [10]: Active
- Activity [11]: Non-toxic
- inhibition (INH) [12]: Not Active
- Activity [13]: 70%
- Activity [18]: 70%
- Activity [19]: 70%
- inhibition [26]: inactive

SMILES: O=C(NOCCO)c1cc(COCCO)c(F)c(F)c1Nc1ccc(I)cc1F
- half-life at 1 µM [1]: > 6 h
- half-life at 1 µM [2]: > 6 h
- MTD [4]: 50 mg/kg

- Stability [32]: Stable
- Tmax [9]: 1.1 h
- MRT inf [16]: 7.3 h
- half-life [20]: 5.5 h
- Cmax [22]: 1700 ng/mL
- AUC(0-inf) [24]: 7900 ng·h/mL
SMILES: O=C(NOC[C@H](O)CO)c1ccc(F)c(F)c1Nc1ccc(I)cc1F [MIRDAMETINIB]
- inhibition [10]: Active
- inhibition [26]: Active

SMILES: O=C(NOCCO)c1cc(CN2OCCC2=O)c(F)c(F)c1Nc1ccc(I)cc1F
- half-life at 1 µM [1]: > 6 h
- half-life at 1 µM [2]: > 6 h
- MTD [4]: 12.5 mg/kg

SMILES: C#Cc1ccc(Nc2c(C(=O)NOCCO)cc(/C=N/OCCO)c(F)c2F)c(F)c1
- half-life at 1 µM [1]: 1.33 h
- half-life at 1 µM [2]: 2.25 h
- IC50 [5]: 150 nM
- IC50 [6]: 235 nM
- IC50 [7]: 160 nM
- MTD [4]: > 200 mg/kg
- TGI [8]: 82%

SMILES: O=C(NOCCO)c1cc(CNOCCO)c(F)c(F)c1Nc1ccc(I)cc1F
- half-life at 1 µM [1]: > 6 h
- half-life at 1 µM [2]: 2.13 h
- MTD [4]: 100 mg/kg

- half-life at 1 µM [1]: > 6 h
- half-life at 1 µM [2]: > 6 h
- IC50 [6]: > 250 nM
- solubility at 2 h [3]: 284 µM (≈ 157 µg/mL)
SMILES: O=C(NOCCO)c1cc(CN2CCOC2=O)c(F)c(F)c1Nc1ccc(I)cc1F
- IC50 [5]: 560 nM
- IC50 [7]: 3060 nM

SMILES: CS(=O)(=O)CCO/N=C/c1cc(C(=O)NOCCO)c(Nc2ccc(I)cc2F)c(F)c1F
- half-life at 1 µM [1]: 1.5 h
- half-life at 1 µM [2]: > 6 h
- IC50 [5]: 27 nM
- IC50 [6]: 67 nM
- solubility at 2 h [3]: 1 µM (≈ 0.601 µg/mL)
- IC50 [7]: 24 nM
- MTD [4]: > 200 mg/kg
- TGI [8]: 98%

SMILES: CC(=O)NCCO/N=C/c1cc(C(=O)NOCCO)c(Nc2ccc(I)cc2F)c(F)c1F
- half-life at 1 µM [1]: > 6 h
- half-life at 1 µM [2]: > 6 h
- IC50 [5]: 86 nM
- IC50 [6]: 48 nM
- IC50 [7]: 199 nM
- MTD [4]: > 200 mg/kg
- TGI [8]: 99%

- half-life at 1 µM [1]: 3.08 h
- half-life at 1 µM [2]: 2.07 h
- IC50 [6]: 85 nM
- solubility at 2 h [3]: 156 µM (≈ 85.7 µg/mL)
SMILES: O=C(NOCCO)c1cc(CN2CCCC2=O)c(F)c(F)c1Nc1ccc(I)cc1F
- IC50 [5]: 20 nM
- IC50 [7]: 57 nM

- half-life at 1 µM [1]: 0.633 h
- half-life at 1 µM [2]: 2.1 h
- IC50 [6]: 42 nM
- solubility at 2 h [3]: 57 µM (≈ 32.3 µg/mL)
SMILES: O=C(NOCCO)c1cc(CN2OCCOC2=O)c(F)c(F)c1Nc1ccc(I)cc1F
- IC50 [5]: 17 nM
- IC50 [7]: 56 nM

SMILES: O=C(NOCCO)c1cc(/C=N\OCCO)c(F)c(F)c1Nc1ccc(I)cc1F
- half-life at 1 µM [1]: > 6 h
- half-life at 1 µM [2]: > 6 h
- IC50 [5]: 2.4 nM
- IC50 [6]: 15 nM
- IC50 [7]: 6 nM
- MTD [4]: 12.5 mg/kg
- TGI [8]: 95%

SMILES: O=C(NOCCO)c1cc(/C=N/OCCO)c(F)c(F)c1Nc1ccc(I)cc1F
- half-life at 1 µM [1]: 1.08 h
- half-life at 1 µM [2]: 3.95 h
- IC50 [5]: 80 nM
- IC50 [6]: 100 nM
- IC50 [7]: 160 nM
- MTD [4]: 100 mg/kg
- TGI [8]: 82%
